Patent publication US7709498B2, “Quinoline derivatives as antibacterial agents” (Janssen Pharmaceutica N.V., priority 2005, dated 2010)
Values after ≈ are worked out from the molar mass of the structure shown.

Columns and labels:
Format in all cases: cell-based
[1] = tested on: Bacillus subtilis (ATCC43639); assay: Microtitre plate assay, IC90 determination, BSU 43639; details: 90% inhibitory concentration for bacterial growth, 37° C., resazurin fluorescence
Method: (§1) The bacteria used in this study were grown overnight in flasks containing 100 ml Mueller-Hinton Broth (Becton Dickinson—cat. no. 275730) in sterile de-ionized water, with shaking, at 37° C. Stocks (0.5 ml/tube) were stored at −70° C. until use. Bacteria titrations were performed in microtiter plates to detect the TCID50, in which the TCID50 represents the dilution that gives rise to bacterial growth in 50% of inoculated cultures.
(§2) In general, an inoculum level of approximately 100 TCID50 was used for susceptibility testing.
(§3) Flat-bottom, sterile 96-well plastic microtiter plates were filled with 180 μl of sterile deionized water, supplemented with 0.25% BSA. Subsequently, stock solutions (7.8× final test concentration) of compounds were added in 45 μl volumes in column 2. Serial five-fold dilutions (45 μl in 180 μl) were made directly in the microtiter plates from column 2 to reach column 11. Untreated control samples with (column 1) and without (column 12) inoculum were included in each microtiter plate. Depending on the bacteria type, approximately 10 to 60 CFU per well of bacteria inoculum (100 TCID50), in a volume of 100 μl in 2.8× Mueller-Hinton broth medium, was added to the rows A to H, except column 12. The same volume of broth medium without inoculum was added to column 12 in row A to H. The cultures were incubated at 37° C. for 24 hours under a normal atmosphere (incubator with open air valve and continuous ventilation). At the end of incubation, one day after inoculation, the bacterial growth was quantitated fluorometrically. Therefore resazurin (0.6 mg/ml) was added in a volume of 20 μl to all wells 3 hours after inoculation, and the plates were re-incubated overnight. A change in colour from blue to pink indicated the growth of bacteria. The fluorescence was read in a computer-controlled fluorometer (Cytofluor Biosearch) at an excitation wavelength of 530 nm and an emission wavelength of 590 nm. The % growth inhibition achieved by the compounds was calculated according to standard methods. The IC90 (expressed in μg/ml) was defined as the 90% inhibitory concentration for bacterial growth.
(§4) BSU 3639 means Bacillus subtilis (ATCC43639); ECO 25922 means Escherichia coli (ATCC25922); EFA 14506 means Enterococcus faecalis (ATCC14506); EFA 29212 means Enterococcus faecalis (ATCC29212); LMO 49594 means Listeria monocytogenes (ATCC49594); PAE 27853 means Pseudomonas aeruginosa (ATCC27853); SMU 33402 means Streptococcus mutans (ATCC33402); SPN 6305 means Streptococcus pneumoniae (ATCC6305); SPY 8668 means Streptococcus pyogens (ATCC8668); STA 43300 means Staphylococcus aureus (ATCC43300); STA 25923 means Staphylococcus aureus (ATCC25923); STA 29213 means Staphylococcus aureus (ATCC29213); STA RMETH means methicilline resistant Staphylococcus aureus (MRSA) (a clinical isolate from the University of Antwerp). ATCC means American type tissue culture.

[2] = tested on: Enterococcus faecalis (ATCC29212); assay: Microtitre plate assay, IC90 determination, EFA 29212; details: Enterococcus faecalis, ATCC29212, 24 h, 90% inhibitory concentration for bacterial growth, 37° C., resazurin fluorescence, read-out: IC90 (μg/ml) EFA 29212
Method: as §1, §2, §3, §4

[3] = tested on: Listeria monocytogenes (ATCC49594); assay: Microtitre plate assay, IC90 determination, LMO 49594; details: 90% inhibitory concentration for bacterial growth, 37° C., resazurin fluorescence; for IC90 (μg/ml) LMO 49594: 24 hours
In short: (§5)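 For each strain, an inoculum of approximately 100 TCID50 met five-fold compound dilutions in BSA-supplemented medium, incubating at 37° C for one day. Resazurin conversion, read at 530 nm excitation and 590 nm emission, defined the 90% inhibitory concentration (μg/ml).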

[4] = tested on: Streptococcus mutans (ATCC33402); assay: Microtitre plate assay, IC90 determination, SMU 33402; details: 90% inhibitory concentration for bacterial growth, 37° C., 24 hours, resazurin fluorescence
In short: as §5

[5] = tested on: Streptococcus pyogens (ATCC8668); assay: Microtitre plate assay, IC90 determination, SPY 8668; details: 90% inhibitory concentration for bacterial growth, 37° C., resazurin fluorescence; for IC90 (μg/ml) SPY 8668: 24 hours
In short: as §5

[6] = tested on: Staphylococcus aureus (ATCC29213); assay: Microtitre plate assay, IC90 determination, STA 29213; details: 90% inhibitory concentration for bacterial growth, 37° C., 24 hours, resazurin fluorescence
Method: as §1, §2
(§6) Flat-bottom, sterile 96-well plastic microtiter plates were filled with 180 μl of sterile deionized water, supplemented with 0.25% BSA. Subsequently, stock solutions (7.8× final test concentration) of compounds were added in 45 μl volumes in column 2. Serial five-fold dilutions (45 μl in 180 μl) were made directly in the microtiter plates from column 2 to reach column 11. Untreated control samples with (column 1) and without (column 12) inoculum were included in each microtiter plate. […] At the end of incubation, one day after inoculation, the bacterial growth was quantitated fluorometrically. […] The fluorescence was read in a computer-controlled fluorometer (Cytofluor Biosearch) at an excitation wavelength of 530 nm and an emission wavelength of 590 nm. The % growth inhibition achieved by the compounds was calculated according to standard methods. […]

[7] = tested on: methicilline resistant Staphylococcus aureus (MRSA) (a clinical isolate from the University of Antwerp); assay: Microtitre plate assay, IC90 determination, STA RMETH; details: 90% inhibitory concentration for bacterial growth, 37° C., resazurin fluorescence; for IC90: Staphylococcus aureus, MRSA, 24 h, read-out: IC90 (μg/ml) STA RMETH
Method: as §1, §2, §3, §4

[8] = tested on: Enterococcus faecalis (ATCC14506); assay: Microtitre plate assay, IC90 determination, EFA 14506; details: 90% inhibitory concentration for bacterial growth, 37° C., 24 hours, resazurin fluorescence
Method: as §1, §2, §3, §4

[9] = tested on: Pseudomonas aeruginosa (ATCC27853); assay: Microtitre plate assay, IC90 determination, PAE 27853; details: 90% inhibitory concentration for bacterial growth, 37° C., resazurin fluorescence
Method: as §1, §2, §3, §4

[10] = tested on: Streptococcus pneumoniae (ATCC6305); assay: Microtitre plate assay, IC90 determination, SPN 6305; details: 90% inhibitory concentration for bacterial growth, 37° C., 24 hours, resazurin fluorescence
In short: as §5

[11] = tested on: Staphylococcus aureus (ATCC43300); assay: Microtitre plate assay, IC90 determination, STA 43300; details: 90% inhibitory concentration for bacterial growth, 37° C., 24 hours, resazurin fluorescence
Method: as §1, §2, §3, §4

[12] = tested on: Staphylococcus aureus (ATCC25923); assay: Microtitre plate assay, IC90 determination, STA 25923; details: 90% inhibitory concentration for bacterial growth, 37° C., resazurin fluorescence; for IC90: Staphylococcus aureus, ATCC25923, 24 h, read-out: IC90 (μg/ml) STA 25923
Method: as §1, §2, §3, §4

[13] = tested on: Escherichia coli (ATCC25922); assay: Microtitre plate assay, IC90 determination, ECO 25922; details: 90% inhibitory concentration for bacterial growth, 37° C., 24 hours, resazurin fluorescence, read-out: IC90 (μg/ml) ECO 25922
Method: as §1, §2, §6

Compound | IC90 ([1]; Bacillus subtilis, ATCC43639, 24 h, read-out: IC90 (μg/ml) BSU 43639) | IC90 [2] | IC90 (μg/ml) LMO 49594 [3] | IC90 (μg/ml) SMU 33402 [4] | IC90 (μg/ml) SPY 8668 [5] | IC90 ([6]; read-out: IC90 (μg/ml) STA 29213) | IC90 (μg/ml) STA RMETH ([7]; 24 hours) | IC90 (μg/ml) BSU 43639 ([1]; 24 hours) | IC90 (μg/ml) EFA 14506 [8] | IC90 (μg/ml) PAE 27853 ([9]; 24 hours) | IC90 (μg/ml) SPN 6305 [10] | IC90 (μg/ml) STA 43300 [11] | IC90 [12] | IC90 [7] | IC90 (μg/ml) STA 25923 ([12]; 24 hours) | IC90 (μg/ml) STA 29213 [6] | IC90 [13] | IC90 ([3]; Listeria monocytogenes, ATCC49594, 24 h, read-out: IC90 (μg/ml) LMO 49594) | IC90 ([9]; Pseudomonas aeruginosa, ATCC27853, 24 h, read-out: IC90 (μg/ml) PAE 27853) | IC90 ([5]; Streptococcus, ATCC8668, 24 h, read-out: IC90 (μg/ml) SPY 8668)
COc1nc2ccc(Br)cc2cc1C(c1ccccc1)C(O)(CCn1ccnc1)c1ccccc1 (stereo not drawn) [Compound 50] | 10.5 µg/mL (≈ 19.9 µM) | 10.5 µg/mL (≈ 19.9 µM) | 23.6 µg/mL (≈ 44.7 µM) | 21.0 µg/mL (≈ 39.7 µM) | 26.5 µg/mL (≈ 50.1 µM) | 26.5 µg/mL (≈ 50.1 µM) | 10.5 µg/mL (≈ 19.9 µM) |  |  |  |  |  |  |  |  |  |  |  |  | 
COc1nc2ccc(Br)cc2cc1C(c1ccccc1)C(O)(CCN(C)C)c1cccc2ccccc12 (stereo not drawn) [Compound 14] |  | 5 µg/mL (≈ 9 µM) | 2.5 µg/mL (≈ 4.5 µM) | 12.4 µg/mL (≈ 22.3 µM) | 2.8 µg/mL (≈ 5.04 µM) |  |  | 11.1 µg/mL (≈ 20 µM) | 9.9 µg/mL (≈ 17.8 µM) | 5.0 µg/mL (≈ 9 µM) | 6.2 µg/mL (≈ 11.2 µM) | 5.6 µg/mL (≈ 10.1 µM) | 9.9 µg/mL (≈ 17.8 µM) | 14 µg/mL (≈ 25.2 µM) |  |  |  |  |  | 
CCNCCC(O)(c1ccc(F)cc1F)C(c1ccccc1)c1cc2cc(Br)ccc2nc1OC (racemic) [Compound A] |  |  |  | 10.8 µg/mL (≈ 19.9 µM) | 10.8 µg/mL (≈ 19.9 µM) |  |  |  |  |  | 1.1 µg/mL (≈ 2.03 µM) |  |  |  | 10.8 µg/mL (≈ 19.9 µM) | 12.1 µg/mL (≈ 22.3 µM) |  |  |  | 
CSc1nc2ccc(Br)cc2cc1C(c1ccccc1)C(O)(CCN(C)C)c1ccccc1 (stereo not drawn) [Compound 32] |  | 4.6 µg/mL (≈ 8.82 µM) |  | 4.6 µg/mL (≈ 8.82 µM) |  |  |  |  |  |  | 13.1 µg/mL (≈ 25.1 µM) | 13.1 µg/mL (≈ 25.1 µM) | 9.3 µg/mL (≈ 17.8 µM) | 13.1 µg/mL (≈ 25.1 µM) |  |  | 11.7 µg/mL (≈ 22.4 µM) | 4.6 µg/mL (≈ 8.82 µM) | 10.4 µg/mL (≈ 19.9 µM) | 4.6 µg/mL (≈ 8.82 µM)
